Experiment [1] is described as follows: Drug Effects on Phenylbenzoquinone-induced Writhing in Mice. In kind it is in vivo, Male Swiss albino mice. The note with it: Mus musculus, po; for ED50: value in parentheses, read-out: Phenylquinone Writhing in Mice, ED50. The procedure: A further test used to determine the utility of the compounds of the present invention is designated: Drug Effects on Phenylbenzoquinone-induced Writhing in Mice
The objective of this test is to determine the ability of test drugs to inhibit the nociceptive (pain) response of mice injected with a chemical irritant. This test is a primary screen for both peripheral and centrally acting analgesic drugs.
Male Swiss albino mice (15-25 g). The animals are fasted for 18 hours prior to use but have free access to water.
(§1) Drug Preparation and Administration:
Drugs are dissolved or suspended according to their solubility in 0.5% Tween 80 in distilled water. They are administered by gastric gavage in a volume of 5 mL/kg. For primary screening all drugs are administered at the arbitrary dosage of 25 mg/kg, p.o. to a group of 10 mice.
A modification of the method of Siegmund et al, Proc. Soc. Exp. Biol. Med., 95, 729-731 (1957) is used. Groups of 5 mice are dosed with the test compound or vehicle control. Sixty minutes later the animals are injected i.p. with 0.3 mL/20 g body weight of a 0.02% solution of phenylbenzoquinone (PBQ; 2-phenyl-1,4-benzoquinone) and placed in individual observation boxes. The number of writhing or abdominal squirming movements made by each mouse during the following 15 min. period is counted. The experiment is repeated with another group of 5 mice and the mean number of writhes per mouse for a group of 10 mice is calculated.
Drug treated and vehicle-treated control groups are compared and the percentage protection conferred by the drug is calculated: [formula] where c=mean number of writhes in the control group where t=mean number of writhes in the test drug group

The nature of experiment [2]: Randall Selitto Test in the Rat (pain threshold in inflamed paw). In kind it is in vivo, Male Sprague Dawley rats. To be noted: rats; for ED50: Rattus norvegicus, po, 1 hour after dosing, value in parentheses, read-out: Randall Selitto Test in the Rat, ED50 (dose which causes analgesia in 50% of the animals).
Source text: An additional test used to determine the utility of the compounds of the present invention is designated: Randall Selitto Test in the Rat
The objective of this test is to assess the potency of peripheral and central acting drugs in inhibiting the reaction of rats to painful stimulation applied to an inflamed paw.
Male Sprague Dawley rats (180-200 g) are used. The animals are fasted overnight prior to drug administration.
as §1
Freund's Complete Adjuvant (FCA) is prepared by suspending 5 mg killed and dried mycobacterium butyricum (Difco) in 1 mL mineral oil. The test compounds are dissolved or suspended in 0.5% Tween 80 in distilled water according to their solubility. They are administered by gastric gavage in a volume of 0.5 mL/100 g body weight to groups of 10 animals.
Ten rats are used per group. The method is essentially that described by Randall and Selitto, Arch. Int. Pharmacodyn. 111, 409 (1957) and the apparatus which is used to apply pressure to the paw (Analgesi-meter for the rat paw, Ugo Basile, Comeria, Italy) is a modification of that described by Gilfoil et al, J. Pharmacol. 142, 1 (1963). The instrument is basically a device which exerts a force that increases at a constant rate. The force is continuously monitored by a pointer moving along a linear scale and is measured in grams. The inflammatory reaction is induced in the left hind paw of rats of injecting 0.1 mL of Freund's adjuvant intradermally. The test compound or vehicle is administered 24 hours after the adjuvant. The pain threshold (vocalization) is determined 1 hour later in the inflamed paw of the treated and control groups.
Presentation of Results and Criteria for Activity:
Each animal which has a reading 1.5 times greater than the mean reading of the control-group will be considered as responsive (having an analgesic effect) to treatment. The number of animals showing an analgesic effect is then determined in each group.
The ED50 (dose which causes analgesia in 50% of the animals) using at least 3 doses is then determined, by the method described in Litchfield and Wilcoxon, J. Pharmacol. Exp. Ther., 96, 99-113 (1949).

Experiment [3] in a line: Preventative Adjuvant Edema (acute anti-inflammatory effect in rats). The note with it: for Preventative Adjuvant Edema, percent inhibition / inhibition in vivo at 25 mg/kg: 25 mg/kg; for Preventative Adjuvant Edema, percent inhibition / inhibition in vivo / inhibition in vivo at 25 mg/kg: p.o.; for ED50 / inhibition in vivo / inhibition in vivo at 25 mg/kg: Rattus norvegicus, po, 72 h; for ED50: value in parentheses; for inhibition in vivo / inhibition in vivo at 25 mg/kg: read-out: Preventative Adjuvant Edema, percent inhibition. In kind it is in vivo, Male Sprague Dawley rats. Set-up: inhibition in vivo: dose or concentration left out as unconfirmed. The method, then:
This test is a primary screen for anti-inflammatory drugs.
Male Sprague Dawley rats (180-200 g) are used. The animals have free access to water but food is withdrawn 18 hours before testing.
Drug Preparations and Administration:
Freund's complete adjuvant is prepared by suspending 5 mg of killed and dried Mycobacterium butyricum (Difco) in 1 mL mineral oil. The test compounds are dissolved, of suspended in 0.5% Tween 80 in distilled water according to their solubility. For primary screening all drugs are administered by gastric lavage at the arbitrary dosage of 25 mg/kg, p.o. in a volume of 0.5 mL/100 g body weight to groups of 10 animals.
The method is essentially that described by Wax et al, J. Pharmacol. Exp. Ther., 192, 166-171 (1975). Groups of rats are injected intradermally in the left hind paw with 0.1 mL of Freund's complete adjuvant. The test compound or vehicle is administered immediately before the adjuvant, 24 hours and 48 hours after the adjuvant (days 0, 1 and 2). The injected hind paw volume is measured before the injection of adjuvant and 24 hrs. after the last drug administration (day 3) by means of a plethysmometer (Buxco Electronics Inc.). The difference between the hind paw volume on day 0 and day 3 represents the edema volume. Etodolac (25 mg/kg, p.o.) is included as a positive control.
The mean edema volume (expressed as mL±SEM) is calculated for each group and the percentage protection conferred by the drug is calculated: [formula] where c is the mean edema volume for the vehicle-treated (0.5% Tween 80 in distilled water) controls and t is the mean edema volume for the drug treated group.

Experiment [4] is described as follows: Drug Effects on Phenylbenzoquinone-induced Writhing in Mice. The experiment is classed as in vivo, Male Swiss albino mice. To be noted: Mus musculus, po, Tested at 10 mg/kg, p.o., read-out: Phenylquinone Writhing in Mice, percent inhibition.

In the case of `CCc1cccc2c3c([nH]c12)C(CC)(CC(=O)O)OCC3Cc1ccccc1` (single isomer, unassigned) [Example 4, 1,8-Diethyl-1,3,4,9-tetrahydro-4-(phenylmethyl)-pyrano[3,4-b]indole-1-acetic Acid], the inhibition in vivo at 25 mg/kg in experiment [1] (25 mg/kg, p.o., read-out: Phenylquinone Writhing in Mice, percent inhibition) was found to be 86%. In experiment [2], the ED50 came to 0.5 mg/kg. For the same compound, in experiment [3], the “Preventative Adjuvant Edema, percent inhibition” value stood at 15%.
Regarding `C=CCC1COC(CC)(CC(=O)O)c2[nH]c3c(CC)c(F)ccc3c21` (single isomer, unassigned) [Example 10], the ED50 in experiment [1] was found to be 7 mg/kg; in experiment [3], 7.8 mg/kg. Further, the “Randall Selitto Test in the Rat, percent inhibition” value in experiment [2] (Tested at 5 mg/kg, p.o.) is given as 60%.
On to `C=CCC1COC(CC)(CC(=O)O)c2[nH]c3c(CCC)cccc3c21` (single isomer, unassigned) [Example 12, 1-ethyl-1,3,4,9-tetrahydro-4-(2-propenyl)-8-propyl-pyrano[3,4-b]indole-1-acetic acid], for which the results for the ED50 in experiment [1] and in experiment [2] were 9.5 mg/kg and 1 mg/kg, respectively. Further, the inhibition in vivo in experiment [3] is 32%.
For the compound `C=CCC1COC(CC)(CC(=O)O)c2[nH]c3c(C)c(Cl)ccc3c21` (single isomer, unassigned) [Example 16, 7-chloro-1-ethyl-1,3,4,9-tetrahydro-8-methyl-4-(2-propenyl)-pyrano[3,4-b]indole-1-acetic acid], the figures for the ED50 in experiment [1], in experiment [2] and in experiment [3] were 5.5 mg/kg, 0.012 mg/kg and 3 mg/kg, respectively.
Take `CCC1(CC(=O)O)OCC(Cc2ccccc2)c2c1[nH]c1c(Cl)c(Cl)ccc21` (single isomer, unassigned) [Example 18, 7,8-dichloro-1-ethyl-1,3,4,9-tetrahydro-4-(phenylmethyl)-pyrano[3,4-b]indole-1-acetic acid]: the 50% effective dose (ED50) was 3.2 mg/kg in experiment [1] and 0.8 mg/kg in experiment [2]. Besides, the inhibition in vivo at 25 mg/kg in experiment [3] worked out at 15%.
With `CCC1(CC(=O)O)OCC(Cc2ccccc2)c2c1[nH]c1c(C)c(Cl)ccc21` (single isomer, unassigned) [Example 19, 7-chloro-1-ethyl-1,3,4,9-tetrahydro-8-methyl-4-(phenylmethyl)-pyrano[3,4-b]indole-1-acetic acid], the figures for the ED50 in experiment [1] and in experiment [2] were 3.3 mg/kg and 1.6 mg/kg, respectively. Further, the inhibition in vivo at 25 mg/kg in experiment [3] worked out at 52%.
For `CCC1(CC(=O)O)OCC(Cc2ccccc2)c2c1[nH]c1c(C)cccc21` (single isomer, unassigned) [Example 22, 1-ethyl-1,3,4,9-tetrahydro-8-methyl-4-(phenylmethyl)-pyrano[3,4-b]indole-1-acetic acid], the ED50 in experiment [1] amounted to 4.7 mg/kg; in experiment [2], 0.25 mg/kg. Further, the “Preventative Adjuvant Edema, percent inhibition” value in experiment [3] turned out to be 47%.
On to `CCC1(CC(=O)O)OCC(Cc2ccc(Cl)cc2)c2c1[nH]c1ccccc21` (single isomer, unassigned) [Example 42], for which the inhibition in vivo at 10 mg/kg in experiment [4] is 24%. For the same compound, in experiment [3], the inhibition in vivo worked out at 18%.
Regarding `CCC1(CC(=O)O)OCC(Cc2ccc(F)cc2)c2c1[nH]c1ccccc21` (single isomer, unassigned) [Example 43], the inhibition in vivo at 10 mg/kg in experiment [4] turned out to be 47%. For the same compound, the inhibition in vivo in experiment [3] came out at 25%.
The matching figures for `CCC1(CC(=O)O)OCC(Cc2cccc(C(F)(F)F)c2)c2c1[nH]c1ccccc21` (single isomer, unassigned) [Example 44]: 22% and 25%.
The matching figures for `CCC1(CC(=O)O)OCC(Cc2ccc(F)cc2F)c2c1[nH]c1ccccc21` (single isomer, unassigned) [Example 45]: 29% and 45%.
As for `CCC1(CC(=O)O)OCC(Cc2ccccc2)c2c1[nH]c1ccccc21` (single isomer, unassigned; isomer a) [Example 1, 1-Ethyl-1,3,4,9-tetrahydro-4-(phenylmethyl)-pyrano[3,4-b]indole-1-acetic Acid (Isomer A)], the ED50 is 1.9 mg/kg in experiment [1] and 0.003 mg/kg in experiment [2]. In addition, the inhibition in vivo at 25 mg/kg in experiment [3] was found to be 37%.

The values above are taken from US4826994A, “Production of substituted 1,3,4,9-tetrahydropyrano(3,4-B)indole-1-acetic acids” (American Home Products Corporation, priority 1988, dated 1989).
